Patent US20250154105A1, “POLYCYCLIC COMPOUND AND USE THEREOF” (TYK MEDICINES, INC., priority 2021, published 2025)

Key:
[1] = tested on: human pleural mesothelioma cells NCI-H226; assay: Cell anti-proliferation experiment (CCK8), NCI-H226; format: cell-based
From the text: TEST EXAMPLE 1 CELL ANTI-PROLIFERATION EXPERIMENT
Determination of proliferation inhibition of YAP-TEAD inhibitor compounds on human pleural mesothelioma cells NCI-H226
Experimental materials and equipments: Human pleural mesothelioma cells NCI-H226 was purchased from NANJING COBIOER BIOSCIENCES CO., LTD. RPMI-1640 medium (Bio-Channel), DMSO (dimethyl sulfoxide), CCK8 (WST-8) Cell Assay Kit (Beyotime), 0.25% EDTA-Tripsin (trypsin digest), 1×PBS (phosphate buffer, PH7.2), 96-well plate (Corning), fetal bovine serum (FBS), 10,000 U/mL penicillin-G/streptomycin, high-speed freezing centrifuge (EPPENDORF 5810R), enzyme-linked immunosorbent assay (Tecan Spark).
1. Cell plating • A) Tumor cells were cultured to 80-90% density in RPMI-1640 (containing 10% FBS and 100 U/mL penicillin-G/streptomycin) under the condition of 37° C., 5% CO2 and saturated humidity. • B) The culture medium was removed from the 10 cm culture dish. • C) Cells were washed with 10 ml 1×PBS. • D) 4 ml of 0.25% EDTA-Tripsin was added to digest pancreatin for 5 minutes in an incubator at 37° C. and 5% CO2. Then the mixture was transferred to a 15 ml centrifuge tube, and centrifuged for 5 minutes at 200 g. The supernatant was discarded to obtain cell precipitation. • E) The cell precipitation was resuspended with 4 ml of […], counted and adjusted to 10,000 cells/ml. • F) The cell suspension was added to a 96-well plate with a volume of 100 μL per well and cultured overnight in an incubator at 37° C. and 5% CO2.
• Compound dilution • A) Preparation of gradient dilution solutions of the tested compounds: the tested compounds was configured to 1 mM stock solution. Then […] of stock solution was dissolved in 1.5 ml of DMSO-free culture solution, and then 3-fold continuous gradient dilution with 0.1% DMSO culture solution was performed to get a total of 9 concentrations. The diluted concentrations of the compound were as follows: 333.33 nM, 111.11 nM, 37.03 nM, 12.35 nM, 4.15 nM, 1.37 nM, 0.46 nM, 0.15 nM • B) After full mixing, 100 μL of culture compound solution was taken to replace the culture solution in the cell culture plate, with 4 duplicated wells at each concentration; • C) The cells were transferred to the incubator to incubate for 3 days.
• A) the cell culture plate was taken out and added with 10 μl of CCK-8 (WST-8) solution per well in the biosafety cabinet; • B) The cell culture plate was put back into the incubator and continued to incubate for 3 hours; • C) 450 nm wavelength was selected to measure absorbance value on TECAN enzyme linked immunosorbent assay detector.
The following formula was used to calculate the cell viability (% Cell Viability); • Cell Viability (%)=[A(Drug-added)-A(Blank)]/[A(0 Drug-added)-A(blank)][…] • A (Drug-added): The absorbance of wells containing cells, CCK8 solution, and drug solution. • A (Blank): The absorbance of wells containing culture medium and CCK8 solution, but without cells. • A (0 Drug-added): The absorbance of wells containing cells, CCK8 solution, but without drug solution. • Cell viability: Cell proliferation viability or cytotoxicity viability was determined by the IC50 value obtained by curve fitting using GraphPad Prism 8 software.

[2] = tested on: YAP-TEAD; assay: YAP-TEAD inhibitor activity by Nano luciferase method (8xGTiiC-nLuc reporter in 293T cells); format: cell-based; conditions: Homo sapiens, HEK-293T, 48 hours incubation, read-out: Nano-luciferase detection (IC50)
From the text: EXAMPLE 2: YAP-TEAD INHIBITOR ACTIVITY WAS DETECTED BY NANO LUCIFERASE METHOD
(1) Experimental materials and equipments: 293T cells were purchased from NANJING COBIOER BIOSCIENCES CO., LTD. DMEM medium (High sugar, no phenol red, Bio-Channel), DMSO (dimethyl sulfoxide), Lipo6000™ transfection reagent (Beyotime), pGL3B-8xGTiiC-nLuc-CMV-fLuc plasmid, 0.25% EDTA-Tripsin (trypsin digest), 1×PBS (phosphate buffer, PH7.2), 96-well white cell culture plate (PerkinElmer), fetal bovine serum (FBS), 10,000 U/mL penicillin-G/streptomycin, high-speed freezing centrifuge (EPPENDORF 5810R), 37° C. CO2 incubator, Vi-cell® Cell Counter, Envision Microplate Reader (PerkinElmer).
The revived 293T cells were inoculated into a 10 cm culture dish and placed in an incubator with 5% CO2, and cultured at constant temperature of 37° C. To ensure transfection efficiency, cells at logarithmic phase (cell density of approximately 50%-70%) should be used.
On the day before transfection, cells at the logarithmic phase were digested with Trypsin-EDTA, and culture medium was added to terminate digestion. The cell suspension was prepared by blowing and mixing using a pipette.
Cell concentration was measured using Vi-cell, and the cell suspension was diluted to a suspension of 5*10^^5 cells per milliliter. After preparing the cell suspension, the suspension was gently mixed. 10 ml of liquid was added to a 10 cm culture dish. In this way, the number of cells in each 10 cm culture dish was 5*10^^6. The cells were incubated at a constant temperature of 37° C. for 1 day in an incubator with 5% CO2.
Two clean and sterile centrifuge tubes were taken and added with 750 μL opti-MEM Medium without antibiotics and serum, respectively. Then one tube was added with 15 μg Plasmid (pGL3B-8xGTiiC-nLuc-CMV-fLuc), and gently blew and mixed well using a pipette; the other tube was added with Lipo6000 transfection reagent, and gently blew and mixed using a pipette. After standing at room temperature for 5 minutes, the culture solution containing DNA was added gently to the culture solution containing Lipo6000 transfection reagent, and mixed well by gently inverting the centrifuge tube, then standing at room temperature for 5 minutes.
The above mixture was added evenly to a 10 cm culture dish and replaced with fresh complete culture medium after 6 hours of cultivation.
After transfection for 1 day, cells were digested with Trypsin EDTA, and culture medium was added to terminate the digestion. The cell suspension was prepared by blowing and mixing using a pipette.
Cell concentration was measured using Vi-cell, and the cell suspension was diluted to a suspension of 20000 cells per milliliter.
After preparing the cell suspension, the suspension was gently mixed, and added to 96-well plate with 100 μL per well. Thus, the density of the cells to be tested is 2000 cells per well.
The inoculated cell culture plate was placed in the incubator for cultivation, and after about 24 hour, compounds with concentration gradient were added.
10 mM compound stock solution was diluted with culture medium to 50 μM. Compound solution of 50 μM was added to the third column of the deep well plate, 216 μL of culture medium containing 0.5% DMSO was added to the fourth to eleventh columns, successively.
Gradient dilution: taking 100 μL of solution from the third column and adding the solution to the fourth column and mixing well; then taking 100 µL of solution from the fourth column again and adding the solution to the fifth column, repeating this operation until the eleventh column.
Taking 25 μL of compound solution from the deep well plate and adding it to a 96-well culture plate using a multi-channel pipette. Repeating four times on the 96 well plate for each compound. Finally, a concentration gradient of 1:3.16 was formed in the 96-well plate with a maximum concentration of 10,000 nM. The • (5) Addition of Nano Luciferase Detection Reagent and Read […]

| IC50 [1] | IC50 [2] | SMILES |
| --- | --- | --- |
| ≤ 1000 nM | ≤ 1000 nM | CNS(=O)(=O)c1ccc2c(c1)-c1cn(C)nc1CC(=O)N2c1ccc(C(F)(F)F)cc1 [Example T-52] |
| ≤ 1000 nM | ≤ 1000 nM | C[C@H](NC(=O)c1cnc2c(c1)c1c(c(=O)n2-c2ccc(C(F)(F)F)cc2)CCC1)c1ccccn1 [Example T-245] |
| – | ≤ 1000 nM | C[C@H](NC(=O)c1ccc2c(c1)c1c(c(=O)n2-c2ccc(C(F)(F)F)cc2)C(F)CCC1)c1ccccn1 (stereo partly shown) [Example T-305] |
| ≤ 1000 nM | ≤ 1000 nM | CN(C)C/C=C/C(=O)Nc1ccc2c(c1)c1nn(C)cc1c(=O)n2-c1ccc(C(F)(F)F)cc1 [Example T-176] |
| ≤ 1000 nM | ≤ 1000 nM | C[C@H](NC(=O)c1ccc2c(c1)c1cncnc1c(=O)n2-c1ccc(C(F)(F)F)cc1)c1ccccn1 [Example T-333] |
| ≤ 1000 nM | ≤ 1000 nM | C[C@H](NC(=O)c1ccc2c(n1)c1csc(Cl)c1c(=O)n2-c1ccc(C(F)(F)F)cc1)c1ccccn1 [Example T-388] |
| 1000 to 5000 nM | 1000 to 5000 nM | C=CC(=O)NC(C)c1c(C)c2ccccc2n(-c2ccc(C(F)(F)F)cc2)c1=O (stereo not shown) [Example T-285] |
| – | ≤ 1000 nM | C[C@H](NC(=O)c1ccc2c(c1)c1c(c(=O)n2-c2ccc(C(F)(F)F)cc2)C(F)(F)CCC1)c1ccccn1 [Example T-309] |
| – | ≤ 1000 nM | C[C@H](NC(=O)c1ccc2c(c1)c1c(c(=O)n2-c2ccc(C(F)(F)F)cc2)CC(F)CC1)c1ccccn1 (stereo partly shown) [Example T-304] |
| – | ≤ 1000 nM | CCS(=O)(=O)Nc1ccc2c(c1)c(C)cc(=O)n2-c1ccc(C(F)(F)F)cc1 [Example T-442] |
| – | ≤ 1000 nM | Cc1cc2cc(C(=O)N[C@@H](C)c3cccc(N)n3)cnc2n(-c2ccc(C(F)(F)F)cc2)c1=O [Example T-461] |

The next lines start with the compound.

| SMILES | IC50 [1] | IC50 [2] |
| --- | --- | --- |
| CNS(=O)(=O)c1ccc2c(c1)-c1ncn(C)c1CN2Cc1ccc(C(F)(F)F)cc1 [Example T-49] | ≤ 1000 nM | ≤ 1000 nM |
| Cc1ccc(S(=O)(=O)Nc2ccc3c(c2)c2nn(C)cc2c(=O)n3-c2ccc(C(F)(F)F)cc2)cc1 [Example T-189] | ≤ 1000 nM | ≤ 1000 nM |
| C[C@H](NS(=O)(=O)c1ccc2c(c1)c1nn(C)cc1c(=O)n2-c1ccc(S(F)(F)(F)(F)F)cc1)c1ccccn1 [Example T-166] | 1000 to 5000 nM | 1000 to 5000 nM |
| Cc1scc2c1c(=O)n(-c1ccc(C(F)(F)F)cc1)c1ccc(C(=O)N[C@@H](C)c3ccccn3)nc21 [Example T-386] | ≤ 1000 nM | ≤ 1000 nM |
| C[C@H](NC(=O)c1cnc2c(c1)c1ccoc1c(=O)n2-c1ccc(C(F)(F)F)cc1)c1ccccn1 [Example T-400] | ≤ 1000 nM | ≤ 1000 nM |
| CCn1cc2c(=O)n(-c3ccc(C(F)(F)F)cc3)c3ncc(C(=O)N[C@@H](C)c4ccccn4)cc3c2n1 [Example T-401] | ≤ 1000 nM | ≤ 1000 nM |
| C[C@H](NC(=O)c1ccc2c(c1)c1nn(C)cc1c(=O)n2-c1ccc(OC(F)(F)F)cc1)c1ccccc1 [Example T-230] | ≤ 1000 nM | ≤ 1000 nM |
| COc1ccc2c(=O)n(-c3ccc(C(F)(F)F)cc3)c3ccc(C(=O)N[C@@H](C)c4ccccn4)cc3c2c1 [Example T-315] | ≤ 1000 nM | ≤ 1000 nM |
| Cc1cc(=O)n(-c2ccc(C(F)(F)F)cc2)c2ncc(C(=O)N[C@@H](C)c3ccccc3)cc12 [Example T-459] | ≤ 1000 nM | ≤ 1000 nM |
| CNS(=O)(=O)c1ccc2c(c1)c1ncn(C)c1c(=O)n2-c1cccc(C(F)(F)F)c1 [Example T-57] | ≤ 1000 nM | ≤ 1000 nM |
| O=C(c1ccc2c(c1)c(=O)ccn2-c1ccc(C(F)(F)F)cc1)N1CC(O)C1 [Example T-37] | – | 1000 to 5000 nM |
| COC[C@@H](C)NC(=O)c1ccc2c(c1)c(=O)ccn2-c1ccc(C(F)(F)F)cc1 [Example T-36] | – | 1000 to 5000 nM |
| C[C@H](NC(=O)c1ccc2c(c1)c1nn(C)cc1c(=O)n2-c1ccc(C(F)(F)F)cc1)c1ccncc1 [Example T-147] | 1000 to 5000 nM | – |
| Cn1cc2c(=O)n(-c3ccc(C(F)(F)F)cc3)c3ccc(C(=O)N4CC(O)C4)cc3c2n1 [Example T-103] | 1000 to 5000 nM | – |
| Cn1cc2c(=O)n(-c3ccc(C(F)(F)F)cc3)c3ccc(C(=O)N4CC(C#N)C4)cc3c2n1 [Example T-104] | 1000 to 5000 nM | – |
| C[C@@H](NC(=O)c1ccc2c(c1)c1nn(C)cc1c(=O)n2-c1ccc(C(F)(F)F)cc1)c1ccccn1 [Example T-106] | 1000 to 5000 nM | – |
| COC[C@@H](C)NC(=O)c1ccc2c(c1)c1nn(C)cc1c(=O)n2-c1ccc(C(F)(F)F)cc1 [Example T-119] | 1000 to 5000 nM | – |
| C[C@H](NC(=O)c1ccc2c(c1)c1c(c(=O)n2-c2ccc(C(F)(F)F)cc2)CC(F)(F)CC1)c1ccccn1 [Example T-308] | – | ≤ 1000 nM |
| CC1OCc2c1c(=O)n(-c1ccc(C(F)(F)F)cc1)c1ncc(C(=O)N[C@@H](C)c3ccccn3)cc21 (stereo partly shown) [Example T-438] | – | 1000 to 5000 nM |
| CC(C)(C)OC(=O)c1ccc2c(c1)c(=O)ccn2-c1ccc(C(F)(F)F)cc1 [Example T-4] | – | 1000 to 5000 nM |
| CC(=O)Nc1ccc2c(c1)c(C)cc(=O)n2-c1ccc(C(F)(F)F)cc1 [Example T-444] | – | 1000 to 5000 nM |
| CN(C)C(=O)c1ccc2c(c1)c1nn(C)cc1c(=O)n2-c1ccc(C(F)(F)F)cc1 [Example T-112] | 1000 to 5000 nM | – |
